Consider 3 compounds from paper PMC3169566, “Rationally Designed Interfacial Peptides Are Efficient In Vitro Inhibitors of HIV-1 Capsid Assembly with Antiviral Activity” (PLoS ONE, 2011).

Peptide text beside a SMILES is read from it.

Series [1] in a line: Solubility under the conditions of the NMR experiments. The format is physicochemical. Particulars: aqueous buffer, long incubations at a relatively high temperature, 50 mM phosphate buffer pH 7.0, read-out: Concentration at which the peptide remained fully soluble. As for the experimental part: NMR spectra were acquired at 20°C on a Bruker Avance DRX-500 spectrometer (Bruker GmbH, Germany) equipped with a triple resonance probe and z-pulse field gradients. Sodium trimethylsilyl [2,2,3,3-^2H4] propionate (Sigma) was used as the internal chemical shift reference in the homonuclear experiments. All experiments were carried out in 50 mM phosphate buffer pH 7.0. Assignments of the heteronuclear single quantum coherence (HSQC) NMR spectra were those previously obtained for the monomeric CTD [43], [44].
We first analyzed whether the CAC1-derived peptides CAC1C and CAC1M had any tendency to self-associate. […] The hydrodynamic radius (Rh) of the three peptides was similar (Table 1).

Series [2] has as its target T1, CTD (C-terminal domain of HIV-1 capsid protein CA) (Human immunodeficiency virus type 1 group M subtype B, UniProt P04591).
T1 construct: CA protein and the isolated CTD (either unlabelled or labelled) were purified as described previously; made in house
Put plainly: CTD binding by fluorescence titration. Particulars: 20 µM wild-type dimeric CTD, 25°C, 50 mM phosphate buffer pH 7.0, 1:1 binding isotherm, read-out: CTD-binding K D. As for the experimental part:
Spectra were collected on a Cary Eclipse spectrofluorimeter (Varian, CA, USA). A concentration of 20 µM CTD and increasing peptide concentrations were used for titration experiments carried out at 25°C in 50 mM phosphate buffer pH 7.0. Excitation wavelength was 280 nm or 295 nm, and emission fluorescence was collected between 300 nm and 400 nm. The excitation and emission slits were set to 5 nm. The response time was 1 s. The dissociation constant of each complex was calculated by fitting the changes observed either in: (i) the fluorescence intensity at a particular wavelength; or (ii) the value of the average energy <λ> [42] for a fixed CTD concentration versus the concentration of added peptide as described.

In a further series the target is T2, HIV-1 capsid protein CA (Human immunodeficiency virus type 1 group M subtype B, UniProt P04591).
T2 construct: CA protein and the isolated CTD (either unlabelled or labelled) were purified as described previously; made in house
In words: CA polymerization in vitro (turbidity at 350 nm) with Ficoll-70 crowding agent. The settings on record: 20 µM CA. The format is biochemical. As for the experimental part: Assembly reactions were carried out as described previously, [53] with some modifications. In general, the polymerization mixtures contained 50 mM sodium phosphate buffer pH 7.4, 2.25 M NaCl, 20 µM CA, and 100 g/l Ficoll-70 (GE HealthCare) as a macromolecular crowding agent. Where indicated, Ficoll-70 was omitted and the final CA concentration was raised to 46 µM. The experiments were initiated by introducing an appropriate volume of a CA solution in 50 mM phosphate buffer into a spectrophotometer cuvette (10-mm pathlength, 20 mm^2 internal section), and the assembly reaction was triggered by adding the appropriate volume of a solution containing 4 M NaCl, 179 g/l Ficoll-70 in 50 mM sodium phosphate buffer pH 7.4, to get the final concentrations desired for each component in a final volume of 500 µl, followed by rapid mixing by repeated inversion of the cell. The pH of the final reaction mixture was checked in a test sample. For inhibition assays, CA was mixed with the appropriate amounts of the peptides, and incubated for 30 minutes before triggering the reaction as indicated above. The time-dependent increase in the optical density at 350 nm as a measure of the light scattered by the assembled particles was monitored at 25°C using a UV-1603 spectrophotometer (Shimadzu, Japan), with data points collected every six seconds. Traces of the variation in the turbidity were analyzed as described previously, [53].

In series [3] the test system is U87-CD4-CXCR4 cells. In words: Transport of peptides into cells (fluorescence microscopy, flow cytometry). The settings on record: rhodamine-labelled peptides in complex with Chariot 1:1, 3 h at 37°C. The format is cell-based, Human. As for the experimental part: To transport the peptides into NB324K or U87-CD4-CXCR4 cells a commercial cell-penetrating peptide (Chariot, Active Motif) was used, according to the manufacturer's recommendations. For fluorescence microscopy analyses, Chariot-peptide binding was accomplished by incubating a mixture containing between 5 µg and 50 µg of either FITC-labelled peptide or rhodamine-labelled peptide and the Chariot peptide at a 1∶1 molar ratio in 100 µl aliquots. Each 100 µl aliquot of the preincubated mixture was added to one well of a 24-well plate containing NB324K or U87-CD4-CXCR4 seeded the previous day (5·10^4 and 1.5·10^5 cells/well, respectively) and 100 µl of serum-free DMEM medium were added. The cells were incubated for 1–3 h, 800 µl DMEM containing 10% FBS were added, and incubation was continued for 1 h. Cells were fixed with a 1∶1 methanol∶acetone solution, their nucleus were stained with 4′,6-diamidino-2-phenylindol dihydrochloride (DAPI, Calbiochem), and cells were examined and imaged using an Axiovert200 (Zeiss) fluorescence microscope and/or a LSM-510 (Zeiss) confocal fluorescence microscope.
FITC-labelled peptides were transported into NB324K or U87-CD4-CXCR4 cells as described above. […] The resuspended cells were analyzed in a FACSCalibur flow cytometer (Becton Dickinson, USA).

In series [4] the test system is U87-CD4-CXCR4 cells. The settings on record: without cell-penetrating peptide; cited from earlier work.
In another series the test system is HIV-1 strain HXB2. In words: Inhibition of HIV-1 production and infection in cultured cells (p24 antigen). The format is cell-based. Particulars: U87-CD4-CXCR4 cells, Chariot-mediated transport. As for the experimental part: U87-CD4-CXCR4 cells from cultured monolayers were collected using 0.25% trypsin and resuspended in DMEM supplemented with 10% FBS (without antibiotics). Cells were seeded in 96-well plates at a density of 3.5×10^4 cells/well and incubated for 24 h. Then, the cells were incubated as described above with mixtures of the corresponding peptides and the Chariot peptide at the appropriate concentrations. After three hours of incubation, the cells were washed with PBS and infected with HIV-1 at a multiplicity of infection of 0.0015 (0.0015 TCID50/cell). After incubation for 2 h at 37°C, the cells were washed with PBS and DMEM supplemented with 10% FBS, 0.5 mg/ml geneticin and 1 µg/ml puromycin were added, and the infected cells were further incubated at 37°C. Viral replication was quantified by measuring HIV-1 CA (p24 antigen) production in the culture supernatant 72 h after infection, using an enzyme-linked immunoassay (INNOTEST HIV-antigen, Innogenetics).

[5] abbreviates: peptide:CA molar ratio of 5, 100 g/l Ficoll-70.

On to `CSCC[C@H](NC(=O)[C@H](Cc1c[nH]c2ccccc12)NC(=O)[C@H](C)NC(=O)[C@H](CCCCN)NC(=O)[C@@H](NC(=O)[C@H](CO)NC(=O)[C@H](CO)NC(=O)[C@H](CO)NC(=O)[C@H](C)NC(=O)[C@H](CO)NC(=O)[C@@H](N)CCC(=O)O)C(C)C)C(=O)N[C@H](C(=O)N[C@@H](CCC(=O)O)C(=O)N[C@H](C(=O)N[C@@H](CC(C)C)C(=O)N[C@@H](CC(C)C)C(=O)N[C@H](C(=O)N[C@@H](CCC(N)=O)C(=O)N[C@@H](CC(N)=O)C(=O)N[C@@H](C)C(N)=O)C(C)C)[C@@H](C)O)[C@@H](C)O` [CAC1C] (H-ESASSSVKAWMTETLLVQNA-NH2), for which the solubility in series [1] is ≥ 200 µM. For the same compound, the Kd in series [2] stood at 19 ± 8 µM.

Consider `CSCC[C@H](NC(=O)[C@H](Cc1c[nH]c2ccccc12)NC(=O)[C@H](C)NC(=O)[C@H](CCCCN)NC(=O)[C@@H](NC(=O)[C@H](CO)NC(=O)[C@H](CO)NC(=O)[C@H](C)NC(=O)[C@H](C)NC(=O)[C@H](CO)NC(=O)[C@H](CCC(=O)O)NC(=O)[C@@H](N)CO)C(C)C)C(=O)N[C@H](C(=O)N[C@@H](CCC(=O)O)C(=O)N[C@H](C(=O)N[C@@H](CC(C)C)C(=O)N[C@@H](CC(C)C)C(=O)N[C@H](C(=O)N[C@@H](C)C(=O)N[C@@H](CC(N)=O)C(=O)N[C@H](C(=O)N[C@@H](CO)C(=O)N[C@@H](CO)C(N)=O)[C@@H](C)O)C(C)C)[C@@H](C)O)[C@@H](C)O` [CAC1M] (H-SESAASSVKAWMTETLLVANTSS-NH2), for which the solubility in series [1] is ≥ 200 µM. On HIV-1 capsid protein CA (setting [5]), the “Higher reduction in polymerization rate compared to CAC1” value was ~30% and the “Higher reduction in total capsid production compared to CAC1” value was “about 20%”. Moreover, the “Chariot-mediated transport of peptides into HIV-1-susceptible cells” value in the series with U87-CD4-CXCR4 cells [3] is “had been achieved”. Further, in series [2], the Kd stood at 8 ± 1 µM.

Turning to ITFEDLLDYYGP [CAI], the “Inhibition of in vitro assembly of HIV-1 capsid-like particles, single inhibitor” value on HIV-1 capsid protein CA (100 g/l Ficoll-70, 2.25 M NaCl, pH 7.4, 25°C, 30 min preincubation, inhibitor:CA molar ratios up to 10 (CAI 0.1-0.5)) is on record as “very efficient”. Also, in the series with U87-CD4-CXCR4 cells [4], the “Ability of the peptide to penetrate cells” value was “unable to penetrate cells”. Further, the “Inhibitory activity of single peptides on HIV-1 production ex vivo” value in the series on HIV-1 strain HXB2 (MOI 0.0015, p24 at 72 h, H4 tested up to close to 2 mM) is “at most a weak inhibitory activity”. Further, the “Peptide concentration required for weak inhibitory activity on HIV-1 production ex vivo” value with HIV-1 strain HXB2 (p24 at 72 h) is given as > 1 mM. Moreover, the “Chariot-mediated transport of peptides into HIV-1-susceptible cells” value in the series on U87-CD4-CXCR4 cells [3] is listed as “had been achieved”.
